# Experimental data as given in patent US20250170126A1 (MITSUBISHI TANABE PHARMA CORPORATION, priority 2022, published 2025).
# Molecular target: Human B0AT1 (Homo sapiens (Human), UniProt Q695T7)
# Assay: hB0AT1 inhibitory test (phenylalanine uptake)
# Assay type: cell-based
# Conditions: Human B0AT1 stable expression CHO cells; [3H]-L-phenylalanine uptake, phenylalanine 0.25 mM
# How it was run: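 CHO cells stably expressing human B0AT1, in sodium-containing HEPES buffer with 0.01% BSA, preincubated with compound (0.5% DMSO) 30 min or longer at ambient temperature. Uptake of [3H]-L-phenylalanine (0.25 mM final) read by scintillation, analysed at 100-200 min; non-specific uptake from […] N-(4-bromophenyl)-3,5-dichloro-2-hydroxybenzamide, IC50 by logistic nonlinear regression.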
# Human B0AT1, sequence (Q695T7 whole entry): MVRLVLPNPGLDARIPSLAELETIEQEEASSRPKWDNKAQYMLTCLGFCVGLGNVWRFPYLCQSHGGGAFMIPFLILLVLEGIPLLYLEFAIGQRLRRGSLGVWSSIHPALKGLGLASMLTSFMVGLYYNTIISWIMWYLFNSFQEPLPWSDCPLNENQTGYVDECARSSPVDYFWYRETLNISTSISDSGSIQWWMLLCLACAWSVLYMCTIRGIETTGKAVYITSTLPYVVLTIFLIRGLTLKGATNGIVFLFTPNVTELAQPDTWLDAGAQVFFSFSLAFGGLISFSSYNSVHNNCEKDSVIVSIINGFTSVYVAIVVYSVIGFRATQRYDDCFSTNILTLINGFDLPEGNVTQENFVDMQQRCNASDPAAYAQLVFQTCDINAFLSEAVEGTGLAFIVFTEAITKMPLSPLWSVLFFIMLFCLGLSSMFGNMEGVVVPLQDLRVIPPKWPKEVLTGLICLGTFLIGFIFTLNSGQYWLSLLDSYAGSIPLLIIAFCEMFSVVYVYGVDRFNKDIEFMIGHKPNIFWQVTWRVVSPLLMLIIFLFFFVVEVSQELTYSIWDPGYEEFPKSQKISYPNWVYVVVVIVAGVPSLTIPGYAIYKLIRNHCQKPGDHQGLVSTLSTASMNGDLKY
row,Structure (SMILES),IC50 [nM]
1,CC(O)c1cc2n(n1)CCN(C(=O)CNC(=O)/C=C/c1ccc(C(F)(F)F)cc1)C2 (stereo not shown) [I-208],50
2,COCC(C)N(Cc1nnc(C)o1)C(=O)CNC(=O)/C=C/c1ccc(C(F)(F)F)cc1 (stereo not shown) [I-210],165
3,CCc1nnc(CN(CC2(F)CC2)C(=O)CNC(=O)/C=C/c2ccc(C(F)(F)F)cc2)o1 [I-211],61
4,CNC(=O)[C@@H]1C[C@H](n2cccn2)CN1C(=O)CNC(=O)/C=C/c1ccc(C(F)(F)F)cc1 [I-216],161
5,COC1CN(C(=O)CNC(=O)/C=C/c2ccc(C(F)(F)F)cc2)Cc2ccc(Br)cc21 (stereo not shown) [I-217],114
6,COCC1Cn2ncnc2CN1C(=O)CNC(=O)/C=C/c1ccc(C(F)(F)F)cc1 (stereo not shown) [I-219],262
7,NS(=O)(=O)c1ccc2c(c1)CCN(C(=O)CNC(=O)/C=C/c1ccc(C(F)(F)F)cc1)C2 [I-220],43
8,CNS(=O)(=O)c1ccc2c(c1)CCN(C(=O)CNC(=O)/C=C/c1ccc(C(F)(F)F)cc1)C2 [I-221],44
9,CCN(CC)C(=O)c1cnn2c1CN(C(=O)CNC(=O)/C=C/c1ccc(C(F)(F)F)cc1)CC2 [I-223],41
10,O=C(/C=C/c1ccc(C(F)(F)F)cc1)NCC(=O)N1CCc2cc(Br)ccc21 [I-260],24
11,O=C(/C=C/c1ccc(C(F)(F)F)cc1)NCC(=O)N1CCc2cc(C(=O)O)c(F)cc2C1 [I-262],435
12,O=C(/C=C/c1ccc(C(F)(F)F)cc1)NCC(=O)N1CCc2cc(C(=O)O)ncc2C1 [I-264],55
13,O=C(/C=C/c1ccc(C(F)(F)F)cc1)NCC(=O)N1CCn2nc(C(=O)O)c(-c3ccc(C(F)(F)F)cc3)c2C1 [I-265],66
14,O=C(/C=C/c1ccc(C(F)(F)F)cc1)NCC(=O)N1CCn2nc(C(=O)O)c(-c3ccc(F)cc3)c2C1 [I-267],83
15,O=C(/C=C/c1ccc(C(F)(F)F)cc1)NCC(=O)N1CCn2nc(C(=O)O)c(Br)c2C1 [I-269],145
16,O=C(/C=C/c1ccc(C(F)(F)F)cc1)NCC(=O)N1CCc2ccc(C(=O)O)cc2C1 [I-270],168
17,O=C(/C=C/c1ccc(C(F)(F)F)cc1)NCC(=O)N1CCc2cc(C(=O)O)ccc2C1 [I-277],143
18,O=C(/C=C/c1ccc(C(F)(F)F)cc1)NCC(=O)N1CCn2ncc(C(=O)N3CCC(F)(F)C3)c2C1 [I-280],49
19,NC(=O)c1ccc2c(c1)CCN(C(=O)CNC(=O)/C=C/c1ccc(C(F)(F)F)cc1)C2 [I-281],21
20,"O=C(/C=C/c1ccc(C(F)(F)F)cc1)NCC(=O)N1CCn2nc(C(F)F)cc2C1 [I-282, (E)-N-[2-[2-(difluoromethyl)-6,7-dihydro-4H-pyrazolo [1,5-a]pyrazin-5-yl]-2-oxoethyl]-3-[4-(trifluoromethyl)phenyl]prop-2-enamide]",26

# The remaining compounds from weak to strong by IC50, led by results:
row,IC50 [nM],Structure (SMILES)
1,728,O=C(/C=C/c1ccc(C(F)(F)F)cc1)NCC(=O)N1CC[C@@H](Cn2cccn2)C1 [I-214]
2,699,O=C(/C=C/c1ccc(C(F)(F)F)cc1)NCC(=O)N1CCc2c(cccc2C(=O)O)C1 [I-271]
3,531,O=C(/C=C/c1ccc(C(F)(F)F)cc1)NCC(=O)N1CCn2ncc(C(=O)O)c2C1 [I-274]
4,473,CNC(=O)[C@H]1C[C@H](n2cccn2)CN1C(=O)CNC(=O)/C=C/c1ccc(C(F)(F)F)cc1 [I-215]
5,361,"O=C(/C=C/c1ccc(C(F)(F)F)cc1)NCC(=O)N1Cc2ccnn2C[C@@H]1C(=O)O [I-283, (6R)-5-[2-[[(E)-3-[4-(trifluoromethyl)phenyl]prop-2-enoyl]amino]acetyl]-6,7-dihydro-4H-pyrazolo[1,5-a]pyrazine-6-carboxylic acid]"
6,355,CCC1Cn2ncnc2CN1C(=O)CNC(=O)/C=C/c1ccc(C(F)(F)F)cc1 (stereo not shown) [I-218]
7,223,"O=C(/C=C/c1ccc(C(F)(F)F)cc1)NCC(=O)N1CCc2c(ccc(C(=O)O)c2F)C1 [I-261, 5-fluoro-2-[2-[[(E)-3-[4-(trifluoromethyl)phenyl]prop-2-enoyl]amino]acetyl]-3,4-dihydro-1H-isoquinoline-6-carboxylic acid]"
8,200,O=C(/C=C/c1ccc(C(F)(F)F)cc1)NCC(=O)N1CCc2nc(C(=O)O)ccc2C1 [I-263]
9,141,O=C(/C=C/c1ccc(S(F)(F)(F)(F)F)cc1)NCC(=O)N1CCn2nc(C(=O)O)cc2C1 [I-272]
10,133,O=C(/C=C/c1ccc(C(F)(F)F)cc1)NCC(=O)N1CCn2nc(C(=O)O)c(C3CCCCC3)c2C1 [I-266]
11,125,O=C(/C=C/c1ccc(C(F)(F)F)cc1)NCC(=O)N1CCn2nc(C(=O)O)cc2C1 [I-273]
12,108,O=C(/C=C/c1ccc(C(F)(F)F)cc1)NCC(=O)N1CC[C@H](Cn2cccn2)C1 [I-213]
13,87,"O=C(/C=C/c1ccc(S(F)(F)(F)(F)F)cc1)NCC(=O)N1CCc2cc(C(=O)O)ccc2C1 [I-276, 2-[2-[[(E)-3-[4-(pentafluoro-A6-sulfanyl)phenyl]prop-2-enoyl]amino]acetyl]-3,4-dihydro-1H-isoquinoline-6-carboxylic acid]"
14,87,"CC(C)CNC(=O)C1CN(C(=O)CNC(=O)/C=C/c2ccc(C(F)(F)F)cc2)Cc2ccccc21 (stereo not shown) [I-278, N-(2-methylpropyl)-2-[2-[[(E)-3-[4-(trifluoromethyl)phenyl]prop-2-enoyl]amino]acetyl]-3,4-dihydro-1H-isoquinoline-4-carboxamide]"
15,79,O=C(/C=C/c1ccc(C(F)(F)F)cc1)NCC(=O)N1CCn2nc(C(=O)O)c(C3CC3)c2C1 [I-268]
16,71,CNC(=O)c1nn2c(c1Br)CN(C(=O)CNC(=O)/C=C/c1ccc(C(F)(F)F)cc1)CC2 [I-279]
17,67,CN(C)C(=O)c1cnn2c1CN(C(=O)CNC(=O)/C=C/c1ccc(C(F)(F)F)cc1)CC2 [I-226]
18,44,NC(=O)c1cnn2c1CN(C(=O)CNC(=O)/C=C/c1ccc(C(F)(F)F)cc1)CC2 [I-224]
19,44,CNC(=O)c1cnn2c1CN(C(=O)CNC(=O)/C=C/c1ccc(C(F)(F)F)cc1)CC2 [I-225]
20,43,Cc1nnc(CN(CC2(F)CCC2)C(=O)CNC(=O)/C=C/c2ccc(C(F)(F)F)cc2)o1 [I-212]
21,34,O=C(/C=C/c1ccc(C(F)(F)F)cc1F)NCC(=O)N1CCc2cc(Br)cc(F)c2C1 [I-236]
22,33,O=C(/C=C/c1ccc(C(F)(F)F)cc1)NCC(=O)N1CCn2ncc(C(=O)N3CCCC3)c2C1 [I-222]
23,32,Cc1nnc(CN(CC2(F)CC2)C(=O)CNC(=O)/C=C/c2ccc(C(F)(F)F)cc2)o1 [I-209]
